Holding throughout (format): cell-based
The subject of assay [1] is Trypanosoma brucei brucei (Lister 427) strain. The assay is described as follows: Assay for growth inhibition against Trypanosoma brucei brucei (Cell TiterGlo ATP luminescence). To be noted: T. brucei brucei (Lister 427), read-out: T. Brucei (HAT) EC50. The gist of the method: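 T. b. brucei Lister 427 grown in HMI-9 with 10% FBS and 10% serum plus, seeded at 10,000 parasites/mL with 10-point threefold compound dilutions in duplicate, 37 °C for 2 days. Viability read as ATP luminescence 30 min after Cell TiterGlo; IC50 versus untreated controls.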
(In ATP-based viability assays light output follows the ATP content of the culture.)

Assay [2] relates to Trypanosoma cruzi amastigotes cultured in 3T3 fibroblast cells. The experiment in a line: Assay for growth inhibition of kinetoplastid parasite Trypanosoma cruzi (beta-galactosidase Tulahuen strain, CPRG readout). To be noted: Trypanosoma cruzi, Fibroblast, T. cruzi amastigotes in 3T3 fibroblast cells; read-out: Buckner infectious T. cruzi EC50. The gist of the method: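 3T3 fibroblasts (1,000 cells/well) plated overnight, treated with compound in DMSO, then infected with 10,000 Lac-Z-expressing Tulahuen trypomastigotes. After 6 days, 0.6 mM CPRG with 0.6% NP-40 added for 2 h at room temperature; absorbance gives relative intracellular amastigote numbers. Benznidazole and nifurtimox serve as positive controls.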

Assay [3] has as its system L. donovani HU3 strain in mouse peritoneal macrophages. The experiment in a line: Assay for inhibition of parasitemia of Leishmania donovani in mouse macrophages (SYBR Green nuclei count, high-content imaging). To be noted: L. donovani in mouse peritoneal macrophages, read-out: L. donovani in Mouse Macrophages EC50. The gist of the method:
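Peritoneal macrophages from uninfected BALB/c mice were infected for 24 h with spleen-derived L. donovani HU3 (4×10^5 parasites per 2×10^4 macrophages), then cultured with compound for 5 days at 37° C, 5% CO2. After fixation and permeabilization, parasite nuclei were stained with SYBR Green and counted by high-content imaging.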

For assay [4], the system named is Leishmania donovani axenic amastigote. The assay is described as follows: In vitro assay for growth inhibition of Leishmania donovani axenic amastigote (Cell TiterGlo luminescence). To be noted: Leishmania donovani, L. donovani axenic amastigotes in vitro; read-out: L. donovani amastigotes EC50. The method, boiled down:
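Axenic L. donovani amastigotes (9600/well) grown at 37 °C, 5% CO2 in supplemented RPMI 1640, pH 5.5, with compound added from DMSO. After two days, viability read by CellTiter-Glo luminescence against DMSO and control-compound wells.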

[5] abbreviates: Leishmania donovani, Peritoneal macrophage.

As usually defined, the EC50 is the concentration that produces a half-maximal response.

Structures are written as SMILES. Where two headings read alike, the source gives them in different places.

With `CC(C)OC(=O)Nc1cnc2nn(-c3cc(NC(=O)N4CC(F)(F)C4)ccc3F)cc2c1` [Compound 146, propan-2-yl N-(2-{5-[(3,3-difluoroazetidine-1-carbonyl)amino]-2-fluorophenyl}-2H-pyrazolo[3,4-b]pyridin-5-yl)carbamate], the EC50 in assay [1] (Trypanosoma brucei) is below 23 nM; in assay [2] it was 85 nM; in assay [3] (setting [5]), 12 nM; in assay [4], 26 nM.
Consider `O=C(Nc1ccc(Cl)c(-n2cc3cc(N4CC5(CC5)C4)cnc3n2)c1)N1CCC1` [Compound 286, N-[3-(5-{5-azaspiro[2.3]hexan-5-yl}-2H-pyrazolo[3,4-b]pyridin-2-yl)-4-chlorophenyl]azetidine-1-carboxamide], for which the EC50 in assay [1] (Trypanosoma brucei) was found to be 30 nM; in assay [2], 14 nM; in assay [3] (setting [5]), 47 nM; in assay [4], 25 nM.
In the same order, the values of `CC(C)(C)Cc1cnc2nn(-c3cc(NC(=O)N4CC(F)(F)C4)ccc3F)cc2c1` [Compound 32, N-{3-[5-(2,2-dimethylpropyl)-2H-pyrazolo[3,4-b]pyridin-2-yl]-4-fluorophenyl}-3,3-difluoroazetidine-1-carboxamide] are below 23 nM, 5 nM, 13 nM and 12 nM.
Take `N#CC1CN(c2cnc3nn(-c4cc(NC(=O)N5CC(F)C5)ccc4F)cc3c2)C1` [Compound 266, N-{3-[5-(3-cyanoazetidin-1-yl)-2H-pyrazolo[3,4-b]pyridin-2-yl]-4-fluorophenyl}-3-fluoroazetidine-1-carboxamide]: the EC50 in assay [1] (Trypanosoma brucei) was determined as 5 nM; in assay [2], 65 nM; in assay [3] (setting [5]) it was 29 nM; in assay [4] it was 8 nM.
In the same order, the values of `CC1CCC(C(=O)Nc2ccc(F)c(-n3cc4cc(C(C)C)cnc4n3)c2)C1` (stereo not drawn) [Compound 66, N-{4-fluoro-3-[5-(propan-2-yl)-2H-pyrazolo[3,4-b]pyridin-2-yl]phenyl}-3-methylcyclopentane-1-carboxamide] are 120 nM, 150 nM, 870 nM and 740 nM.
In the same order, the values of `Cc1nc(C(=O)Nc2ccc(F)c(-n3cc4cc(C(C)C)cnc4n3)c2)c(C)o1` [Compound 74, N-{4-fluoro-3-[5-(propan-2-yl)-2H-pyrazolo[3,4-b]pyridin-2-yl]phenyl}-2,5-dimethyl-1,3-oxazole-4-carboxamide] are 110 nM, 57 nM, 820 nM and 760 nM.
As for `CC(C)c1cnc2nn(-c3cc(NC(=O)c4nc(Cl)ccc4F)ccc3F)cc2c1` [Compound 86, 6-chloro-3-fluoro-N-{4-fluoro-3-[5-(propan-2-yl)-2H-pyrazolo[3,4-b]pyridin-2-yl]phenyl}pyridine-2-carboxamide], the EC50 in assay [1] (Trypanosoma brucei) was below 23 nM; in assay [2], 14 nM; in assay [3] (setting [5]) it was 120 nM; in assay [4], 130 nM.
Take `O=C(Nc1ccc(F)c(-n2cc3cc(C4CCN4)cnc3n2)c1)N1CC(F)C1` (stereo not drawn) [Compound 264, N-{3-[5-(azetidin-2-yl)-2H-pyrazolo[3,4-b]pyridin-2-yl]-4-fluorophenyl}-3-fluoroazetidine-1-carboxamide]: the EC50 in assay [1] (Trypanosoma brucei) was 384 nM; in assay [2], 480 nM; in assay [3] (setting [5]), 13700 nM; in assay [4], 357 nM.
`O=C(Nc1ccc(F)c(-n2cc3cc(N4CC5(CC5)C4)cnc3n2)c1)N1CC(F)C1` [Compound 233, N-[3-(5-{5-azaspiro[2.3]hexan-5-yl}-2H-pyrazolo[3,4-b]pyridin-2-yl)-4-fluorophenyl]-3-fluoroazetidine-1-carboxamide]: the EC50 in assay [1] was found to be 4 nM; in assay [2], 5 nM; in assay [3] (setting [5]), 10 nM; in assay [4], 13 nM.
In the case of `Cc1nc(C2CC2)oc1C(=O)Nc1ccc(F)c(-n2cc3cc(C(C)C)cnc3n2)c1` [Compound 76, 2-cyclopropyl-N-{4-fluoro-3-[5-(propan-2-yl)-2H-pyrazolo[3,4-b]pyridin-2-yl]phenyl}-4-methyl-1,3-oxazole-5-carboxamide], the EC50 in assay [1] (Trypanosoma brucei) was determined as 480 nM; in assay [2], 410 nM; in assay [3] (setting [5]), 930 nM; in assay [4], 1100 nM.
In the same order, the values of `O=C(Nc1ccc(F)c(-n2cc3cc(NC4CC4)cnc3n2)c1)N1CC(F)C1` [Compound 249, N-{3-[5-(cyclopropylamino)-2H-pyrazolo[3,4-b]pyridin-2-yl]-4-fluorophenyl}-3-fluoroazetidine-1-carboxamide] are 5 nM, 110 nM, 125 nM and 864 nM.
On to `CC(C)c1cnc2nn(-c3cc(NC(=O)CCCC(F)(F)F)ccc3F)cc2c1` [Compound 214, 5,5,5-trifluoro-N-{4-fluoro-3-[5-(propan-2-yl)-2H-pyrazolo[3,4-b]pyridin-2-yl]phenyl}pentanamide], for which the EC50 in assay [1] (Trypanosoma brucei) turned out to be 1060 nM; in assay [2] it was 1420 nM; in assay [3] (setting [5]), 658 nM; in assay [4], 4600 nM.
In the same order, the values of `O=C(Nc1ccc(F)c(-n2cc3cc(N4CC5(CCOCC5)C4)cnc3n2)c1)N1CC(F)C1` [Compound 203, 3-fluoro-N-[4-fluoro-3-(5-{7-oxa-2-azaspiro[3.5]nonan-2-yl}-2H-pyrazolo[3,4-b]pyridin-2-yl)phenyl]azetidine-1-carboxamide] are 5 nM, 20 nM, 9 nM and 490 nM.
In the case of `O=C(Nc1ccc(F)c(-n2cc3cc(N4CC(F)(F)C4)cnc3n2)c1)[C@H]1C[C@@H]1F` (single isomer, unassigned) [Compound 339], the EC50 in assay [1] (Trypanosoma brucei) turned out to be 163 nM; in assay [2], 112 nM; in assay [3] (setting [5]), 310 nM; in assay [4], 1590 nM.
In the same order, the values of `O=C(Nc1ccc(F)c(-n2cc3cc(-c4ccccn4)cnc3n2)c1)N1CC(F)C1` [Compound 28, 3-fluoro-N-{4-fluoro-3-[5-(pyridin-2-yl)-2H-pyrazolo[3,4-b]pyridin-2-yl]phenyl}azetidine-1-carboxamide] are below 23 nM, 1 nM, 2 nM and 1.3 nM.
In the same order, the values of `CN(C)c1cnc2nn(-c3cc(NC(=O)N4CC(F)(F)C4)ccc3F)cc2c1` [Compound 9, N-(3-(5-(dimethylamino)-2H-pyrazolo[3,4-b]pyridin-2-yl)-4-fluorophenyl)-3,3-difluoroazetidine-1-carboxamide] are 35 nM, 9.8 nM, 11 nM and 8.7 nM.
In the case of `CC(C)OC(=O)Nc1cnc2nn(-c3cc(NC(=O)N4CC[C@@H](F)C4)ccc3F)cc2c1` [Compound 136], the EC50 in assay [1] (Trypanosoma brucei) was below 23 nM; in assay [2], 170 nM; in assay [3] (setting [5]) it was 19 nM; in assay [4] it was 30 nM.
In the same order, the values of `O=C(Nc1ccc(F)c(-n2cc3cc(N4CC5CC(C4)O5)cnc3n2)c1)N1CC(F)C1` [Compound 240, 3-fluoro-N-[4-fluoro-3-(5-{6-oxa-3-azabicyclo[3.1.1]heptan-3-yl}-2H-pyrazolo[3,4-b]pyridin-2-yl)phenyl}azetidine-1-carboxamide] are 5 nM, 21 nM, 27 nM and 579 nM.
In the same order, the values of `O=C(Nc1ccc(F)c(-n2cc3cc(Br)cnc3n2)c1)c1ccco1` [Compound 130, N-(3-(5-bromo-2H-pyrazolo[3,4-b]pyridin-2-yl)-4-fluorophenyl)furan-2-carboxamide] are 40 nM, 36 nM, 160 nM and 190 nM.
Take `O=C(Nc1ccc(F)c(-n2cc3cc(N4CCCC4)cnc3n2)c1)N1CC(F)C1` [Compound 131, 3-fluoro-N-{4-fluoro-3-[5-(pyrrolidin-1-yl)-2H-pyrazolo[3,4-b]pyridin-2-yl]phenyl}azetidine-1-carboxamide]: the EC50 in assay [1] (Trypanosoma brucei) was below 23 nM; in assay [2], 5.2 nM; in assay [3] (setting [5]), 5.1 nM; in assay [4], 7 nM.
For the compound `O=C(Nc1ccc(F)c(-n2cc3cc(N4CC(F)(F)C4)cnc3n2)c1)[C@@H]1C[C@H]1F` (single isomer, unassigned) [Compound 268, (1 S,2R)—N-(3-(5-(3,3-difluoroazetidin-1-yl)-2H-pyrazolo[3,4-b]pyridin-2-yl)-4-fluorophenyl)-2-fluorocyclopropane-1-carboxamide or (1R,2S)—N-(3-(5-(3,3-difluoroazetidin-1-yl)-2H-pyrazolo[3,4-b]pyridin-2-yl)-4-fluorophenyl)-2-fluorocyclopropane-1-carboxamide], the EC50 in assay [1] is 116 nM; in assay [2], 82 nM; in assay [3], 273 nM; in assay [4], 84 nM.
